# Data as given in ChEMBL document CHEMBL4219188, “Design, synthesis, neuroprotective, antibacterial activities and docking studies of novel thieno[2,3-d]pyrimidine-alkyne Mannich base and oxadiazole hybrids” (Bioorg Med Chem Lett, 2018).
# Assays:
# Bacillus subtilis [1] = assay: Antibacterial activity against Bacillus subtilis assessed as diameter of inhibition zone measured after 24 hrs by agar well diffusion method; format: functional; also: test concentration or dose not given here
# Escherichia coli [2] = assay: Antibacterial activity against Escherichia coli assessed as diameter of inhibition zone measured after 24 hrs by agar well diffusion method; format: functional; also: test concentration or dose not given here
# Pseudomonas aeruginosa [3] = assay: Antibacterial activity against Pseudomonas aeruginosa assessed as diameter of inhibition zone measured after 24 hrs by agar well diffusion method; format: functional; also: test concentration or dose not given here
# [4] = Cytotoxicity against rat PC12 cells after 24 hrs by MTT assay; format: cell-based, PC-12; settings: for MNTC at 24 h: read-out: MNCC
# [5] = Cytotoxicity against rat PC12 cells assessed as cell viability at MNTC after 24 hrs by MTT assay relative to control; format: cell-based, PC-12; settings: read-out: Activity
# [6] = Cytotoxicity against rat PC12 cells assessed as cell viability at CC50 after 24 hrs by MTT assay relative to control; format: cell-based, PC-12; settings: read-out: Activity
# PC-12 [7] = assay: Neuroprotective activity against H2O2-induced cytotoxicity in rat PC12 cells assessed as increase in cell viability pretreated for 24 hrs followed by H2O2 addition by MTT assay; format: functional, cell-based
# PC-12 [8] = assay: Neuroprotective activity against H2O2-induced cytotoxicity in rat PC12 cells assessed as cell viability at EC50 pretreated for 24 hrs followed by H2O2 addition by MTT assay relative to control; format: functional
# Staphylococcus aureus [9] = assay: Antibacterial activity against Staphylococcus aureus assessed as diameter of inhibition zone measured after 24 hrs by agar well diffusion method; format: functional; also: test concentration or dose not given here
# Staphylococcus aureus [10] = assay: Antibacterial activity against Staphylococcus aureus after 24 hrs by UV-vis spectrophotometric method; format: functional
# Bacillus subtilis [11] = assay: Antibacterial activity against Bacillus subtilis after 24 hrs by UV-vis spectrophotometric method; format: functional
# Escherichia coli [12] = assay: Antibacterial activity against Escherichia coli after 24 hrs by UV-vis spectrophotometric method; format: functional
# Pseudomonas aeruginosa [13] = assay: Antibacterial activity against Pseudomonas aeruginosa after 24 hrs by UV-vis spectrophotometric method; format: functional
MIC (Staphylococcus aureus [10]) [µg/mL],MIC (Bacillus subtilis [11]) [µg/mL],MIC (Escherichia coli [12]) [µg/mL],MIC (Pseudomonas aeruginosa [13]) [µg/mL],Structure (SMILES),diameter of the inhibition zone (DIZ) (Bacillus subtilis [1]) [mm],diameter of the inhibition zone (DIZ) (Escherichia coli [2]) [mm],diameter of the inhibition zone (DIZ) (Pseudomonas aeruginosa [3]) [mm],CC50 at 24 h [4] [µg/mL],MNTC at 24 h [4] [µg/mL],viability at 24 h [5] [%],viability at 24 h [6] [%],Activity (PC-12 [7]),EC50 (PC-12 [7]) [µg/mL],Activity (PC-12 [8]) [%],diameter of the inhibition zone (DIZ) (Staphylococcus aureus [9]) [mm]
0.0366,0.0642,0.0486,0.0448,COc1ccc(-c2nnc(-c3sc4ncnc(N5CCCCC5)c4c3C)o2)cc1,14,17,12,124,100,99,49.9,Dose-dependent effect,20.1,75.12,10
0.526,0.0628,0.0324,0.0128,Cc1c(C(=O)OCC#CCN2CCN(c3ccc(Br)cc3C#N)CC2)sc2ncnc(N3CCOCC3)c12,12,13,12,122,100,99.6,49,Dose-dependent effect,32.3,75.44,10
0.046,0.0381,0.0382,0.0266,Cc1c(-c2nnc(-c3ccc([N+](=O)[O-])cc3)o2)sc2ncnc(N3CCOCC3)c12,13,16,16,94.2,80,99.2,49.2,Dose-dependent effect,16.2,75.11,16
0.0404,0.0142,0.0138,0.0201,Cc1ccc(-c2nnc(-c3sc4ncnc(N5CCCCC5)c4c3C)o2)cc1,17,11,12,161,110,99.5,49.2,Dose-dependent effect,28.2,74.98,14
